# Calls of active or inactive are those of the source.
# What was measured:
# Coagulation factor XII = target: T1, Coagulation factor XII (Homo sapiens, UniProt P00748); type: functional;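 further: activated factor XIIa alpha cleaving a fluorogenic AMC peptide substrate; inhibitor potency from loss of enzyme activity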
# T1 sequence (P00748 whole entry): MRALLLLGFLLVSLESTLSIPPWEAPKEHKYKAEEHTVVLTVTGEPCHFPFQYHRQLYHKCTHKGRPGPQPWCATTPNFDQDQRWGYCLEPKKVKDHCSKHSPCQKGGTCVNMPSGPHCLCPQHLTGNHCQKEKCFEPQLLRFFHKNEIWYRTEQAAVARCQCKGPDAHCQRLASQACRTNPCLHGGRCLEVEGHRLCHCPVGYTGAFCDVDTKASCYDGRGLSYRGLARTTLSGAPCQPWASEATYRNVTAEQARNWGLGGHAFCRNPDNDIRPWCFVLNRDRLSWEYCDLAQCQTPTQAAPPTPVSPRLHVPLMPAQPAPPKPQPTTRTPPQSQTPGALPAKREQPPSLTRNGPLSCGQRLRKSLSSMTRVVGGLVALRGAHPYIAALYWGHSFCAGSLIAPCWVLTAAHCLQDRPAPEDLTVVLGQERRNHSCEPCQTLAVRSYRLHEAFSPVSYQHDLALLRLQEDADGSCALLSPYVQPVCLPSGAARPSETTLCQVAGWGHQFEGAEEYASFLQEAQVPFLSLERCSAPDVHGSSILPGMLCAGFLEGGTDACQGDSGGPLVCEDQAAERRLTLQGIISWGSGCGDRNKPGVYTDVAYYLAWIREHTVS
# [1] = target: T2, RNA-binding protein pos-1 (Caenorhabditis elegans, UniProt G5EF15); experiment: inhibitors of POS-1/mex-3 RNA binding, dose response, biochemical, fluorescence polarization (AID 1964);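 further: purified POS-1 fused to maltose binding protein made in E. coli; potency of compounds blocking POS-1 binding to fluorescent RNA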
# T2 sequence (G5EF15 whole entry): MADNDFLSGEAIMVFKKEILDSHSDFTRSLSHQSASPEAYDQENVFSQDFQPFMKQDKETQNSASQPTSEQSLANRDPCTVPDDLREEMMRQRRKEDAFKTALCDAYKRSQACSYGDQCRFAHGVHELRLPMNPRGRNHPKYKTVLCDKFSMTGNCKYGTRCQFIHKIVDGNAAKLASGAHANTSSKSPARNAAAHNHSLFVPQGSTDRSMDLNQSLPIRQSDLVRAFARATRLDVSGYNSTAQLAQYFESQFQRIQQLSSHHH
# [2] = target: T3, Zinc finger protein mex-5 (Caenorhabditis elegans, UniProt Q9XUB2); experiment: MEX-5/TCR-2 RNA interaction inhibitors, dose response, biochemical, C. elegans, fluorescence polarization (AID 1960)
# T3 sequence (Q9XUB2 whole entry): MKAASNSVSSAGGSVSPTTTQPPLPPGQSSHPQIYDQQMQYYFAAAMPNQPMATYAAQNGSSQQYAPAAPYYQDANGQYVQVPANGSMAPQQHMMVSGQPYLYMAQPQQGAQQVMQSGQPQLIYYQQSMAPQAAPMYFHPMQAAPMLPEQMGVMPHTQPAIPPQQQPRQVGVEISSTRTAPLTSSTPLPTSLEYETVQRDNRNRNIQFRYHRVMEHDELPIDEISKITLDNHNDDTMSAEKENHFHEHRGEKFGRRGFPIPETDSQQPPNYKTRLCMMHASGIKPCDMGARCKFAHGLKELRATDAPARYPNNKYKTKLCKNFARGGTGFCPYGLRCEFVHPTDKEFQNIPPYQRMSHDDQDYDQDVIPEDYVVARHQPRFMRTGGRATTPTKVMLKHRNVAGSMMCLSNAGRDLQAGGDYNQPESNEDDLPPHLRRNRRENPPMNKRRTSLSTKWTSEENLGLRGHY
# [3] = target: Alkaline phosphatase, placental type (Homo sapiens, UniProt P05187); experiment: PLAP enzyme inhibitors, confirmation, biochemical, luminescence (AID 1512); type: functional
# Cytochrome P450 3A4 [4] = target: T4, Cytochrome P450 3A4 (Homo sapiens, UniProt P08684); conditions: Potency
# Cytochrome P450 2C9 = Cytochrome P450 2C9 (Homo sapiens, UniProt P11712); conditions: Potency
# Beta-galactosidase [5] = target: T5, Beta-galactosidase (Escherichia coli, UniProt Q8VNN2); experiment: beta-galactosidase enzyme inhibitors and activators, dose response, artefact control for CCR6 antagonist project, biochemical, E. coli enzyme, set 3 (AID 504712); type: functional
# [6] = tested on: Streptococcus sp. 'group A'; experiment: growth inhibition of control SK(-) GAS strain, dose response, counter-screen for streptokinase expression inhibitor project, luminescence, kanamycin, BacTiterGlo, confirmation (AID 1900); type: functional, organism-based; conditions: Streptococcus sp. 'group A'
# Beta-galactosidase [7] = target: T5, Beta-galactosidase; type: functional
# [8] = target: T6, Kappa-type opioid receptor (Homo sapiens, UniProt P41145); type: functional
# Streptokinase A = target: T7, Streptokinase A (Streptococcus pyogenes serotype M1, UniProt P10520); experiment: S. pyogenes streptokinase expression inhibitors, potency, dose response, plasminogen activation absorbance, OD405 (AID 1914); type: functional, Streptococcus pyogenes M1 GAS;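 further: secreted streptokinase activity via plasminogen activation per viability signal from cell pellet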
# T7 sequence (P10520 whole entry): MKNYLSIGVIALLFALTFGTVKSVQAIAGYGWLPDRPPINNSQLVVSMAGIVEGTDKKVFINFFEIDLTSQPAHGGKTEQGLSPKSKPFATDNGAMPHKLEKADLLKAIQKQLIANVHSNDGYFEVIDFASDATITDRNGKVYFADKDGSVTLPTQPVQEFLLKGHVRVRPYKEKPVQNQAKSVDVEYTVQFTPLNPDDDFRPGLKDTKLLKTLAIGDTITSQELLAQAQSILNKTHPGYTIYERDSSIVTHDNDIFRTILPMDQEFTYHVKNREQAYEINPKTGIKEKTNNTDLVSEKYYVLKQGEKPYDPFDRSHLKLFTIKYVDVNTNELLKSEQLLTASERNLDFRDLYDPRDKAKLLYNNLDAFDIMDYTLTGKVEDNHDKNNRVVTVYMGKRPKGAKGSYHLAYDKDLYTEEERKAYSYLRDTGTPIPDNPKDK
# [9] = target: T6, Kappa-type opioid receptor; type: functional; remark: listed apart in the source
# Streptococcus = experiment: Group A Streptococcus viability loss, dose response, counter-screen for streptokinase expression inhibitor project, luminescence, BacTiterGlo (AID 1915); type: functional, organism-based; conditions: Streptococcus;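 further: potency for reduction of bacterial viability or growth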
# SUMO-activating enzyme [10] = target: T8, SUMO-activating enzyme (Homo sapiens, UniProt Q9UBT2); experiment: SUMOylation inhibitor hit validation, confirmation, SUMOylation inhibitor project, biochemical, AlphaScreen (AID 2018); type: functional
# SUMO-activating enzyme [11] = target: T8, SUMO-activating enzyme; experiment: inhibitors of in vitro SUMOylation cascade, primary screen, biochemical, HTRF, uHTS (AID 2006); type: protein-complex assay
# Estrogen receptor = target: T9, Estrogen receptor (Homo sapiens, UniProt P03372);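 further: potency for inhibiting coactivator peptide recruitment to the receptor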
# T9 sequence (P03372 whole entry): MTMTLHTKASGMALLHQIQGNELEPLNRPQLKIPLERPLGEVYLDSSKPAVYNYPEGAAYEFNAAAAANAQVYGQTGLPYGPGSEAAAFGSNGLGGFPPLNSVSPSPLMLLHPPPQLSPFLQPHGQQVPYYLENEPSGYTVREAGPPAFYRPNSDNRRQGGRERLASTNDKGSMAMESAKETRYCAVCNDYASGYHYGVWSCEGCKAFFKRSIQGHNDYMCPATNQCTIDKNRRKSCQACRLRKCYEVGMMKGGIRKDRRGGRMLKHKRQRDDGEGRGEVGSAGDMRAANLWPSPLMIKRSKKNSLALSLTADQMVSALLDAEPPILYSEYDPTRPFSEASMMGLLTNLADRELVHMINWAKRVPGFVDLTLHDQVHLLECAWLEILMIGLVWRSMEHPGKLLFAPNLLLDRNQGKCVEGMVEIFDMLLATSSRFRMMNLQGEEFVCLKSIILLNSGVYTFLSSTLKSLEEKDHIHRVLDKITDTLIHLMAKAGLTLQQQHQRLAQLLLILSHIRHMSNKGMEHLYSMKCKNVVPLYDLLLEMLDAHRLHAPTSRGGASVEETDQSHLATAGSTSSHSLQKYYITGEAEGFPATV
# [12] = target: T10, Voltage-gated N-type calcium channel alpha-1B subunit/Amyloid beta A4 precursor protein-binding family A member 1 (Homo sapiens, UniProt Q00975+Q02410); type: protein assay
# [13] = target: T10, Voltage-gated N-type calcium channel alpha-1B subunit/Amyloid beta A4 precursor protein-binding family A member 1; type: protein assay; remark: listed apart in the source
# Trypsin = Trypsin (Sus scrofa, UniProt P00761); experiment: porcine trypsin inhibitors, dose response, selectivity assay for Rce1 protease inhibitor project, biochemical, quenched peptide fluorescence, cherry-pick (AID 488789)
# [14] = target: FAD-linked sulfhydryl oxidase ALR (Homo sapiens, UniProt P55789); experiment: inhibitors of human ALR sulfhydryl oxidase, dose response, biochemical, H2O2 detection, luminescence, cherry-pick (AID 493248)
# [15] = target: DNA dC->dU-editing enzyme APOBEC-3G (Homo sapiens, UniProt Q9HC16); experiment: Dose Response confirmation of small molecule APOBEC3G DNA Deaminase Inhibitors via a fluorescence-based single-stranded DNA deaminase assay. [Related pubchem assays (depositor defined):AID493012, AID493028]; type: functional
# [16] = target: DNA dC->dU-editing enzyme APOBEC-3A (Homo sapiens, UniProt P31941); experiment: APOBEC3A DNA deaminase inhibitors, dose response, biochemical (AID 504722); type: functional
# Cytochrome P450 3A4 [17] = target: T4, Cytochrome P450 3A4
# [18] = target: Glucose-6-phosphate 1-dehydrogenase (Homo sapiens, UniProt P11413); experiment: human G6PD enzyme inhibitors, dose response, selectivity assay for P. falciparum G6PD inhibitor project, biochemical, fluorescence (AID 504792); type: functional
# Large T antigen = Large T antigen (Simian virus 40, UniProt P03070); type: functional, Betapolyomavirus macacae;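 further: Confirmatory-stage PubChem screen for compounds that inhibit SV40 T antigen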
# cells = type: functional
# [19] = THP-1 cell cytotoxicity, dose response, cytotoxicity control for non-replicating M. tuberculosis project (AID 489025); type: functional
# Nonstructural protein 1 = Nonstructural protein 1 (Influenza A virus, UniProt Q194T2); type: functional, Influenza A virus (A/California/07/2009(H1N1))
# [20] = Vero E6 cell cytotoxicity, dose response, cytotoxicity control for non-replicating M. tuberculosis project, secondary assay (AID 492998); type: functional, VeroE6; conditions: Vero C1008
# INS1 = experiment: beta cell apoptosis inhibitors, cytokine rescue, dose response, luminescence, retest (AID 449756); type: functional, cell-based; conditions: Rattus norvegicus;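 further: cell death triggered by IL-1 beta plus TNF-alpha plus IFN-gamma mixture; protective hits raise ATP signal compared with cytokine alone wells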
# [21] = Luminescence Cell-Based Dose Retest to Confirm Inhibitors of Cancer Stem Cells. [Related pubchem assays (depositor defined):AID2717, AID2721]; type: functional, Homo sapiens; conditions: Homo sapiens
# [22] = microbe, parasite or virus in culture; type: functional; conditions: Mycobacterium tuberculosis
# Sequence of DNA dC->dU-editing enzyme APOBEC-3G (Q9HC16 whole entry): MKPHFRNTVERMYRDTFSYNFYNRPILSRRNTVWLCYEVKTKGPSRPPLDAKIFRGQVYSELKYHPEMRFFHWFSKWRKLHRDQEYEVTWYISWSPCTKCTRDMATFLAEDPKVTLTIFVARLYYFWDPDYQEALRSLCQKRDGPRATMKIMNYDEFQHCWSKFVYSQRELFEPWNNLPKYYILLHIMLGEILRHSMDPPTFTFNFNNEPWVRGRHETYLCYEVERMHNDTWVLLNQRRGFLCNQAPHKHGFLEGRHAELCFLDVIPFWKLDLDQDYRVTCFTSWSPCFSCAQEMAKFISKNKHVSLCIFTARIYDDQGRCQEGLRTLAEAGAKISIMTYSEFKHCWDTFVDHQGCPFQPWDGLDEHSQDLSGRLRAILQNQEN
# T5 sequence (Q8VNN2 whole entry): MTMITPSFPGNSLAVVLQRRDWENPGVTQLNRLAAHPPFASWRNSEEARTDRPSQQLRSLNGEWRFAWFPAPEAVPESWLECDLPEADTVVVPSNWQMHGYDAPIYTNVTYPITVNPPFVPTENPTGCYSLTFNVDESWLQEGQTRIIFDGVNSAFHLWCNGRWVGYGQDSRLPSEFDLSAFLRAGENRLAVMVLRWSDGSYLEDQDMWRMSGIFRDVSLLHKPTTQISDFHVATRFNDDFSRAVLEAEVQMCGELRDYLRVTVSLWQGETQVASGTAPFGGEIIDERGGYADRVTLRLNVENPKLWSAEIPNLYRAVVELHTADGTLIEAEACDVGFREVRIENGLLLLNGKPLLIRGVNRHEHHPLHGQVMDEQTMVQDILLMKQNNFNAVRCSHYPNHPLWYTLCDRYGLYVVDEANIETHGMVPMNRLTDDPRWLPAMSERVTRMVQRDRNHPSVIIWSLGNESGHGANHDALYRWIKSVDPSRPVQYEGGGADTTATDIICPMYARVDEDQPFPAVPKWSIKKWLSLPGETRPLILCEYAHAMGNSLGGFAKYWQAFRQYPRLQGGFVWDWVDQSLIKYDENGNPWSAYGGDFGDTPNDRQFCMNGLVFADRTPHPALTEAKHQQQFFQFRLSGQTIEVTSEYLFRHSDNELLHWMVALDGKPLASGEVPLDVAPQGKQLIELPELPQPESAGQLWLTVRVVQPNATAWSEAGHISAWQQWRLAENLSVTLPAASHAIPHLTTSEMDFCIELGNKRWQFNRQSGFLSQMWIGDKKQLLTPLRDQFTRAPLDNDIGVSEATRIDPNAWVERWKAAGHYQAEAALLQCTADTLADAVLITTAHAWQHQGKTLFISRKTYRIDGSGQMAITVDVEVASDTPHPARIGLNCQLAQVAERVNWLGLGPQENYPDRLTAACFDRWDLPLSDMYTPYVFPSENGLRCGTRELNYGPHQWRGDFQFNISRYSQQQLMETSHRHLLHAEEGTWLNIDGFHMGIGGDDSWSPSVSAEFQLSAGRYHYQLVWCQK
# Sequence of DNA dC->dU-editing enzyme APOBEC-3A (P31941 whole entry): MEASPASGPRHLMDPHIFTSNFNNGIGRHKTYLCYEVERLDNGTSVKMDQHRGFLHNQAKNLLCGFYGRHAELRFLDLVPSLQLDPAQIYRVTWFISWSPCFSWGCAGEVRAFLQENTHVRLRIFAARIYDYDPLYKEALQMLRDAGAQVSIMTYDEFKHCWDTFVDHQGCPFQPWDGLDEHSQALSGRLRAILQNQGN
# T6 sequence (P41145 whole entry): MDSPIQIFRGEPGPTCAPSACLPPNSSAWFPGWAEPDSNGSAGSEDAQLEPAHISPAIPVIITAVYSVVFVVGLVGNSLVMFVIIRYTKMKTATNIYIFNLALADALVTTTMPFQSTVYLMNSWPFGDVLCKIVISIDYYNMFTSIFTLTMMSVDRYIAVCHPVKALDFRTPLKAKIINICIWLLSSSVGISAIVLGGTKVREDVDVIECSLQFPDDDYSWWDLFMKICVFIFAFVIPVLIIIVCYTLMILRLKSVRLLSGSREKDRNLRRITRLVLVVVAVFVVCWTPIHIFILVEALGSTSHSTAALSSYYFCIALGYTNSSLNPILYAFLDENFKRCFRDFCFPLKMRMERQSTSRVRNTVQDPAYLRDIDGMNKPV
# T4 sequence (P08684 whole entry): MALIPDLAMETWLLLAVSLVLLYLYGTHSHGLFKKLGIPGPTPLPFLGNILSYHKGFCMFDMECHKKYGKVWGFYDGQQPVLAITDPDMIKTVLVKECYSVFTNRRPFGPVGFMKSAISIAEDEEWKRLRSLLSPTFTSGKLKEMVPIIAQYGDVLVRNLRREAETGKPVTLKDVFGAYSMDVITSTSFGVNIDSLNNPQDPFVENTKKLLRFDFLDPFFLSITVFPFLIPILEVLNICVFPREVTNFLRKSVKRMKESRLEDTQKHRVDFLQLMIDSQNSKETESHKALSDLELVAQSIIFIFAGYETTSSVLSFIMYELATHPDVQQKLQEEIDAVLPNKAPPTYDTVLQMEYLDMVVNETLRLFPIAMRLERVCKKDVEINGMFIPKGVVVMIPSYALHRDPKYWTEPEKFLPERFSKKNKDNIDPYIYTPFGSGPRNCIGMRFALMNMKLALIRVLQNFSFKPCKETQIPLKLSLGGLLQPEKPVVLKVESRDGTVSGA
# T8 sequence (Q9UBE0 whole entry): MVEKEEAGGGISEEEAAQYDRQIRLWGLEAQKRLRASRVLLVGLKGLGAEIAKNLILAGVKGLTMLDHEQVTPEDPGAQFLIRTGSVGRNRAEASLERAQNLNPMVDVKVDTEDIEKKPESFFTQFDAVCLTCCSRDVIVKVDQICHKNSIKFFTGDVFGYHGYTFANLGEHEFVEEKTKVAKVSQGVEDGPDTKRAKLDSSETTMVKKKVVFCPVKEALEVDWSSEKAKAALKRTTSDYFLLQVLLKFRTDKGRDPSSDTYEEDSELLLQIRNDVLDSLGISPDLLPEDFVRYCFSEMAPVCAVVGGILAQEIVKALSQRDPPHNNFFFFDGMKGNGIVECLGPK
# T8 sequence (Q9UBT2 whole entry): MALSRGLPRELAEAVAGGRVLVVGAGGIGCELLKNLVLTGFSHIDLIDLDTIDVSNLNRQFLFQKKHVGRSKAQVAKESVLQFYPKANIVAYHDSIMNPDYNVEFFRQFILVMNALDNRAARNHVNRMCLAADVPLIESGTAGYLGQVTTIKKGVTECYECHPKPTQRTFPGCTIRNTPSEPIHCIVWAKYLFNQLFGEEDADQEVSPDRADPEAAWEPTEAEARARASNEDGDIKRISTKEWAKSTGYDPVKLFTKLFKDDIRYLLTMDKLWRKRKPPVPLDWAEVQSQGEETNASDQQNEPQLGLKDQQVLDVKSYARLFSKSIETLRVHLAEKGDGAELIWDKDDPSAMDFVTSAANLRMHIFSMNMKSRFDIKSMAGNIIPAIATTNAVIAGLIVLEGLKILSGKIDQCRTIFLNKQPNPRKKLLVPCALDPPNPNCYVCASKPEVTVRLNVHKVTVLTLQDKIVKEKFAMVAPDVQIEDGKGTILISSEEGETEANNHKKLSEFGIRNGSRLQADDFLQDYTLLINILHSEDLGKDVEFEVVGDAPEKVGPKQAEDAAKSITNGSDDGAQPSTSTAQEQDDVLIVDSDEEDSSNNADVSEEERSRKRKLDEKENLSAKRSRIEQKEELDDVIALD
# Sequence of Glucose-6-phosphate 1-dehydrogenase (P11413 whole entry): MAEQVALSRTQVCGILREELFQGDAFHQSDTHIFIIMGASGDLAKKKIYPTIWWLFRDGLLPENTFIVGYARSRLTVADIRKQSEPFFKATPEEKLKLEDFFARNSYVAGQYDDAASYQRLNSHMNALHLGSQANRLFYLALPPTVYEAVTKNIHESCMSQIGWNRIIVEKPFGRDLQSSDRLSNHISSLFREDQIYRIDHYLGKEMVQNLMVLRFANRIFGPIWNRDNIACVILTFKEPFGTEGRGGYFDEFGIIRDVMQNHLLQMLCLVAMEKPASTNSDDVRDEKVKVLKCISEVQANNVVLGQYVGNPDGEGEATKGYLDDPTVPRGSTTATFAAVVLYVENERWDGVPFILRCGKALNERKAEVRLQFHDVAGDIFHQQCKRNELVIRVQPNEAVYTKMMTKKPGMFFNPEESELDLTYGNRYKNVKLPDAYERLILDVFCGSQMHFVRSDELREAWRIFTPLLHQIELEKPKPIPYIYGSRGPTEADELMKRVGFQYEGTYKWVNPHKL
# Sequence of Large T antigen (P03070 whole entry): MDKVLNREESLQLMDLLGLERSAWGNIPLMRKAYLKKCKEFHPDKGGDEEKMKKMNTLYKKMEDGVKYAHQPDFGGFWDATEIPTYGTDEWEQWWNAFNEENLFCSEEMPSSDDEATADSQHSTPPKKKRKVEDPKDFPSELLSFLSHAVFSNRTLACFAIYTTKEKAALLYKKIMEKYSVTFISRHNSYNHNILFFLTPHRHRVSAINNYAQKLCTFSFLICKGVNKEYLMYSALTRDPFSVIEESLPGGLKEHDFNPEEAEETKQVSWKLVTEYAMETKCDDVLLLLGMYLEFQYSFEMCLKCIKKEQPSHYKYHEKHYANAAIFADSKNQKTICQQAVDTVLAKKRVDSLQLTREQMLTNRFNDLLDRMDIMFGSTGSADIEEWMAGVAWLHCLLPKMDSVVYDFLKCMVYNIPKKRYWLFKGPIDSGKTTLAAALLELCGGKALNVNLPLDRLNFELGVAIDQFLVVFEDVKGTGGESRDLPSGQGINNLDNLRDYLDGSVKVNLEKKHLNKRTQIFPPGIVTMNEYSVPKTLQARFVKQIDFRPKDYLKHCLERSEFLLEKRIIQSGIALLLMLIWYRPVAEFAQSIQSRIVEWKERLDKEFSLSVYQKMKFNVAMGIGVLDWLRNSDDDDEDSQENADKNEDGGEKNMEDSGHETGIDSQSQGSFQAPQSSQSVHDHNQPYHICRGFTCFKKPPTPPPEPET
# Sequence of Trypsin (P00761 whole entry): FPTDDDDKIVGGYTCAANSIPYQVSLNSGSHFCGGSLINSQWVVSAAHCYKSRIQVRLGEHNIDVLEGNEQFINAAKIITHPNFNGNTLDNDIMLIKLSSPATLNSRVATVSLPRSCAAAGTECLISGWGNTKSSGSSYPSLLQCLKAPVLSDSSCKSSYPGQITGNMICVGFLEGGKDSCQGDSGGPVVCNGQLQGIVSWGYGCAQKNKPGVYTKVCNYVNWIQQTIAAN
structure (smiles),measurement,setting,value
Cc1ccc(NC(=O)CCn2cccc2)cc1C,IC50,Coagulation factor XII,> 50 µM (inactive)
CCOCCCNC(=O)CCC(=O)NNc1nc2ccccc2c2nc(C)nn12,EC50,[1],> 300 µM (not active)
same,EC50,[2],1.45 µM (active)
same,IC50,[3],> 100 µM (inactive)
CC1CCC2C(=O)N3C(CCC(C)[C@H]3c3ccccc3Br)C(=O)N2C1c1ccccc1Br (some centres not stated),AC50,Cytochrome P450 3A4 [4],1.26 µM (inconclusive)
same,AC50,Cytochrome P450 2C9,6.31 µM (inconclusive)
Cc1ccn(CC(=O)O)c(=O)c1,IC50,Coagulation factor XII,> 50 µM (inactive)
Cc1cc2nc(N3C(=O)CNC3=S)sc2cc1C,IC50,Beta-galactosidase [5],> 66.6 µM (inactive)
same,EC50,[6],3.98 µM (active)
same,EC50,Beta-galactosidase [7],> 31.5 µM (inactive)
same,IC50,[8],8.55 µM (active)
same,EC50,Streptokinase A,> 150 µM (not active)
same,IC50,[9],> 32 µM
same,EC50,Streptococcus,10.6 µM (active)
CCc1ccc2nc(NC(=O)c3ccc4c(O)nc(CN5CCOCC5)nc4c3)sc2c1,IC50,SUMO-activating enzyme [10],7.19 µM (active)
same,IC50,SUMO-activating enzyme [11],3.54 µM (active)
same,IC50,Estrogen receptor,8.23 µM (active)
same,IC50,[12],6.59 µM (active)
same,IC50,[13],> 50 µM (inactive)
CC1CCc2c(sc(NC(=O)COC(=O)c3ccccc3NCc3ccco3)c2C#N)C1 (configuration not stated),AC50,Trypsin,9.07 µM (active)
COc1cc(/C=N/n2c(S)nnc2COc2ccccc2)cc(Br)c1O,AC50,[14],2.65 µM (active)
same,IC50,[15],2.19 µM (active)
same,IC50,[16],> 100 µM (inactive)
Cc1ccc(NNS(=O)(=O)c2ccc(C)cc2)cc1,AC50,Cytochrome P450 3A4 [17],28.2 µM (inconclusive)
same,IC50,[15],37.9 µM (active)
same,IC50,[18],> 80 µM (inactive)
Cc1cc(C)nc(SSc2nc(C)cc(C)n2)n1,IC50,Large T antigen,28.2 µM (active)
same,IC50,[15],5.1 µM (active)
same,IC50,[18],> 80 µM (inactive)
same,IC50,[16],> 100 µM (inactive)
CCOc1ccc(C(=O)N/N=C/c2cccc3cccnc23)cc1,IC50,Beta-galactosidase [5],> 66.6 µM (inactive)
same,IC50,cells,2.75 µM (active)
same,CC50,[19],11.5 µM (active)
same,IC50,Nonstructural protein 1,11.4 µM (active)
same,CC50,[20],> 20 µM (active)
CN(/N=C/c1cc(Br)cc(Br)c1O)c1cccc(C(F)(F)F)n1,IC50,Beta-galactosidase [5],> 66.6 µM (inactive)
same,EC50,[6],0.58 µM (active)
same,AC50,INS1,10.7 µM (active)
same,EC50,Streptokinase A,> 150 µM (not active)
same,AC50,[21],5.94 µM (active)
same,EC50,Streptococcus,9.95 µM (active)
same,CC50,[22],17.6 µM (active)

# Source: ChEMBL document CHEMBL1201862, “PubChem BioAssay data set” (2004)
